Reference: US8815845B2, “1,4-benzodiazepine-2,5-diones and related compounds with therapeutic properties” (The Regents of the University of Michigan, priority 2009, dated 2014)

Key:
[1] = molecular target: ROCK-II (h, amino acids 11-552) (Homo sapiens (Human), UniProt O75116); assay: ROCK-II (h) inhibition assay; assay type: biochemical; conditions: read-out: ROCK2 IC50
Experimental: ROCK-II (h) Inhibition Assay:
In a final reaction volume of 25 μL, ROCK-II (h, amino acids 11-552) (5-10 mU) was incubated with 50 mM Tris pH 7.5, 0.1 mM EGTA, 30 [μM […], 10 mM magnesium acetate and γ-^32P-ATP] (specific activity approx. 500 cpm/pmol, concentration as required). The reaction was initiated by the addition of the MgATP mix. After incubation for 40 minutes at room temperature, the reaction was stopped by the addition of 5 μL of a 3% phosphoric acid solution. 10 μL of the reaction was then spotted onto a P30 filter-mat and washed three times for 5 minutes in 75 mM phosphoric acid and once in methanol prior to drying and scintillation counting.

[2] = molecular target: ROCK-I (h, amino acids 17-535) (Homo sapiens (Human), UniProt Q13464); assay: ROCK-I (h) inhibition assay; assay type: biochemical; conditions: read-out: ROCK1 IC50
Experimental: ROCK-I (h) Inhibition Assay:
In a final reaction volume of 25 μL, ROCK-I (h, amino acids 17-535) (5-10 mU) was incubated with 8 mM MOPS pH 7.0, 0.2 mM EDTA, 30 μM […], 10 mM magnesium acetate and [γ-^32P-ATP] (specific activity approx. 500 cpm/pmol, concentration as required). The reaction was initiated by the addition of the MgATP mix. After incubation for 40 minutes at room temperature, the reaction was stopped by the addition of 5 μL of a 3% phosphoric acid solution. 10 μL of the reaction was then spotted onto a P30 filtermat and washed three times for 5 minutes in 75 mM phosphoric acid and once in methanol prior to drying and scintillation counting.

ROCK-II (h, amino acids 11-552), sequence (O75116 11-552): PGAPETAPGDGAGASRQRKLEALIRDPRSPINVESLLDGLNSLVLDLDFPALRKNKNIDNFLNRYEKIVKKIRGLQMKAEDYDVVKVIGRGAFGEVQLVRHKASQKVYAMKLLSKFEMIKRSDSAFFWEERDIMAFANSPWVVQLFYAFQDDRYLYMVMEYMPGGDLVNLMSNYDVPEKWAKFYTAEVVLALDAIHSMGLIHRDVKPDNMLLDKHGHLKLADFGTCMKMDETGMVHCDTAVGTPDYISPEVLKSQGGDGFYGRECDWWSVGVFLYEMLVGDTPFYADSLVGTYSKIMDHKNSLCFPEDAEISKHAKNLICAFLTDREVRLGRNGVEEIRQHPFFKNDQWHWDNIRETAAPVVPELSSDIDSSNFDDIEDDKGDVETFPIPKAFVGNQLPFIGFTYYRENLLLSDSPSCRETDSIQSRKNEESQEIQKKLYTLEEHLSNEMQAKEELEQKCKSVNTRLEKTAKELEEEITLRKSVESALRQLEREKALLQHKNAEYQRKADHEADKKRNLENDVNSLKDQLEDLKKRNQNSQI
ROCK-I (h, amino acids 17-535), sequence (Q13464 17-535): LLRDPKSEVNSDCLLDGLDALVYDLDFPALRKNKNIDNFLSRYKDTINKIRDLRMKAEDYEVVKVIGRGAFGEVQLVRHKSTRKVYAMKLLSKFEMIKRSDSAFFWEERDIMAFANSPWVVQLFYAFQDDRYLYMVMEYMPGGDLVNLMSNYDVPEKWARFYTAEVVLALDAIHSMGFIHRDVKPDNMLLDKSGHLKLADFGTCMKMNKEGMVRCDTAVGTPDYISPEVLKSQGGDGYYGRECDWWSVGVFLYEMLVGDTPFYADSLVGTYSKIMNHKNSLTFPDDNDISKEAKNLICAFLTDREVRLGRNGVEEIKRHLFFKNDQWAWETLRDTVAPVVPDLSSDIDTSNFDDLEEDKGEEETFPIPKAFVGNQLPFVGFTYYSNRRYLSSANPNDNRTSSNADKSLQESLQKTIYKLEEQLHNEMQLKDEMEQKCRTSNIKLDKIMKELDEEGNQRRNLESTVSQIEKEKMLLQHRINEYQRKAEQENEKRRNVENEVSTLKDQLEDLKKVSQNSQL

Row | Compound | IC50 [1] | IC50 [2]
1 | CN1C(=O)[C@@H](Cc2ccc(-c3cn[nH]c3)cc2)NC(=O)c2cc(Cl)ccc21 [Compound 1, (R)-3-(4-(1H-pyrazol-4-yl)benzyl)-7-chloro-1-methyl-3,4-dihydro-1H-benzo[e][1,4]diazepine-2,5-dione] | 1 µM | > 30 µM
2 | CN1C(=O)[C@@H](Cc2ccc(-c3ccnc(N)c3)cc2)NC(=O)c2cc(Cl)ccc21 [Compound 2, (R)-3-(4-(2-aminopyridin-4-yl)benzyl)-7-chloro-1-methyl-3,4-dihydro-1H-benzo[e][1,4]diazepine-2,5-dione] | 7.1 µM | > 10 µM
3 | COc1ccc2c(c1)C(=O)N[C@@H](Cc1ccc(-c3ccnc(N)c3)cc1)C(=O)N2C [Compound 3, (S)-3-(4-(2-aminopyridin-4-yl)benzyl)-7-methoxy-1-methyl-3,4-dihydro-1H-benzo[e][1,4]diazepine-2,5-dione] | 2.4 µM | > 10 µM

Second part, the molecule after the results:

Row | IC50 [1] | IC50 [2] | Compound
4 | 0.25 µM | 5.1 µM | CN1C(=O)[C@H](Cc2ccc(-c3ccnc4[nH]ccc34)cc2)NC(=O)c2cc(Cl)ccc21 [Compound 4, (S)-3-(4-(1H-pyrrolo[2,3-b]pyridin-4-yl)benzyl)-7-chloro-1-methyl-3,4-dihydro-1H-benzo[e][1,4]diazepine-2,5-dione]
5 | 0.2 µM | 2.8 µM | COc1ccc2c(c1)C(=O)N[C@@H](Cc1ccc(-c3ccnc4[nH]ccc34)cc1)C(=O)N2C [Compound 5, (S)-3-(4-(1H-pyrrolo[2,3-b]pyridin-4-yl)benzyl)-7-methoxy-1-methyl-3,4-dihydro-1H-benzo[e][1,4]diazepine-2,5-dione]
